Test results reported in patent US20210030022A1, “NOVEL USE OF SUBSTITUTED CHROMAN-6-OLS” (DSM IP ASSETS B.V., priority 2018, published 2021).
Entries after “also recorded” stand apart in the source; their conditions may differ. Blank lines part the entries; values can stand above or below the compound they belong to.

Legend:
[1] = Oxipres antioxidant efficacy value (EV) in pet food; conditions: Oxipres 70° C., 5 bar O2, equimolar to BHT; EV relative to BHT (EV=1)
Description: (§1) Oxidative stability was assessed using an Oxipres (Mikrolab Aarhus A/S, Hojbjerg, Denmark). The ML OXIPRES® is designed to monitor the oxidation of heterogeneous products. Consumption of oxygen results in a pressure drop which is measured by means of pressure transducers. The samples are heated to accelerate the process and shorten the analysis time (Mikrolab Aarhus 2012).
(§2) Sample weights were 50 g. They were loaded into the Oxipres vessels and placed inside the stainless-steel pressure vessel and sealed. The pressure vessels were purged with pure oxygen and filled to an initial oxygen pressure of 5 bar and maintained at 70° C. during measurement (D. Ying, L. Edin, L. Cheng, L. Sanguansri, M. A. Augustin, LWT—Food Science and Technology 2015, 62, 1105-1111: “Enhanced oxidative stability of extruded product containing polyunsaturated oils.”).
(§3) The oxygen pressure was recorded as function of time. After sample load and temperature rise the pressure in the device is increasing within 10 hours up to the starting pressure. Thereafter it is decreasing. Consequently, the starting pressure is considered as being the pressure after 10 hours. The analysis ends after 130 hours at 70° C. The oxygen consumption ‘O2’ of the tested sample is calculated as follows: […]
(§4) A factor of protection called ‘EV’ (Efficacy Value) was developed to quantify with a relative number (relative to BHT) the antioxidant effect of the tested candidates. EV was calculated as follows:
(§5) EV, being relative to BHT (3,5-di-tert-butyl-4-hydroxy-toluene) (EV=1), makes it possible to compare the antioxidant compounds in a defined feed application.
(§6) Each of the compounds of formulae (1) to (6) were mixed into each matrix 1, 2 or 3 (pet food, poultry meal, fish meal) in an equimolar ratio compared to BHT. Batches of 200 g feed were produced in order to handle a minimum of 30 mg of antioxidant. First, a 1% pre-dilution of the antioxidant with the feed material was made. Then this pre-dilution was added to the final batch, mixed, sieved (1.25 mm sieve) and mixed using a turbula mixer. Thereafter 55 g of the final batch were packed into polyethylene bags, and stored at 4° C. until start of the Oxipres assay. Spare sample were stored at 4° C. Compound of formula (3) was measured in all three matrices. Compound of formula (1) was measured in matrix 1 and 2. Compound of formula (2) was measured in matrix 2. Compounds of formulae (4), (5) and (6) were measured in matrix 3. An efficacy value 0.7 has been considered as acceptable, an efficacy value ≥ the efficacy value of alpha-tocopherol as good, and an efficacy value ≥ the efficacy value of BHT as very good.

[2] = Oxipres antioxidant efficacy value (EV) in fish meal; conditions: Oxipres 70° C., 5 bar O2, equimolar to BHT; EV relative to BHT (EV=1)
Description: as §1, §2, §3, §4, §5, §6

[3] = Oxipres antioxidant efficacy value (EV) in poultry meal; conditions: Oxipres 70° C., 5 bar O2, equimolar to BHT; EV relative to BHT (EV=1)
Description: as §1, §2, §3, §4, §5, §6

[4] = Oil Stability Index (OSI) in crude algal oil, Example 13; conditions: for OSI: Table 33, crude algal oil (contained about 1.6 mg/g MNT prior to use), 80° C.; for Protection Factor (%): Table 35, crude algal oil (80° C.)
Description: The compounds of formulae (3) and (7) were used in both fish and algal oils to see their antioxidant effect in these oils. Antioxidant effect was determined using mainly the Oil Stability Index (OSI).
(§7) Two concentration levels were used: 0.5 mg/g (low level) and 2 mg/g (high level), respectively, have been added to 5 g of oil and used in the Oxidative Stability Instrument operated at 80° C. with the continuous air flow rate at ˜40 psi. All samples were run in duplicate. The Protection Factors (PF) for each compound, as percentage, in oil were calculated as,
The Oil Stability Indices (OSI) of crude algal oil with levels of 0.5 mg/g and 2 mg/g of compounds of formulae (3) or (7) are shown in Table 33.

[5] = Oil Stability Index (OSI) in fish oil, Example 13; conditions: for OSI: Table 28, FG30TG fish oil, 80° C.; for Protection Factor (%): Table 34, fish oil (80° C.)
Description: as §7, with “The compounds of formulae (3) and (7) were used in both fish and algal oils to see their antioxidant effect in these oils. Antioxidant effect was determined using mainly the Oil Stability Index (OSI). Two” for “Two”, “as, [formula]” for “as,”

[6] = Storage stability in fish oil (PV, p-AV), Example 13; conditions: for Peroxide values (PV, meq/kg) / p-Anisidine value (p-AV): storage at 25° C.
Description: A storage stability study was performed to compare the variation of primary oxidation products, the hydroperoxides, generated during oxidation, measured in terms of peroxide value (PV) and the secondary oxidation products which were measured and determined as anisidine reactive substances or p-anisidine value (p-AV) of oil samples containing these compounds.
The two different concentrations of compounds of formulae (3) and (7) were used for the storage stability study. Each compound and MNT were added, each individually, to 40 g of fish oil samples in 60 ml amber bottles at 0.5 mg/g and 2 mg/g levels, thoroughly mixed and stored at ambient temperature for 19 days. All sample bottles were stored open to air, away from light. […] Peroxide values (PV) and p-anisidine values (p-AV) were determined at different times for 19 days.

[7] = Solubility in fish oil; assay type: physicochemical; conditions: fish oil, 0.5 and 2 mg/g; mixed around 40° C. to dissolve completely
Description: The compounds of formulae (4), (6), (8) and (9) were evaluated primarily for their oxidative stability by the Oil Stability Index (OSI) measurements. Two different levels of these antioxidants (0.5 and 2 mg/g) were used in 5 g of natural fish oil (Product code: FG30TG) and used in the Oxidative Stability Instrument at 80° C. with the air flow rate of 40 psi. The solubility of different amounts and types of antioxidants used in OSI was checked before and after the application. […]

SMILES: Cc1cc(C(C)(C)C)c(O)c(C(C)(C)C)c1 [BHT, 3,5-di-tert-butyl-4-hydroxy-toluene, reference compound]
- EV in pet food [1]: 1
- EV in Fish meal [2]: 1
- EV in poultry meal [3]: 1

SMILES: Oc1ccc2c(c1)CCCO2 [Compound of formula (1), chroman-6-ol]
- EV in pet food [1]: 0.98
- EV in poultry meal [3]: 1.12

- Solubility in oil [7]: not readily soluble in oil
SMILES: CC1(C)CCc2cc(O)ccc2O1 [Compound of formula (3), 2,2-dimethyl-chroman-6-ol]
- OSI ([4]; 0.5 mg/g): 17.05 h
- OSI ([4]; 2 mg/g): 18.63 h
- Protection Factor (%) ([4]; 0.5 mg/g): 13.7%
- Protection Factor (%) ([4]; 2 mg/g): 24.2%
- EV in pet food [1]: 0.95
- EV in Fish meal [2]: 0.96
- OSI ([5]; 0.5 mg/g): 7.13 h
- OSI ([5]; 2 mg/g): 7.48 h
- Protection Factor (%) ([5]; 0.5 mg/g): 42.5%
- Protection Factor (%) ([5]; 2 mg/g): 49.5%
- antioxidant activity (OSI) in fish oil compared with MNT ([5]; fish oil, Example 13, 0.5 and 2 mg/g): slightly higher Oil Stability Indices than those of MNT; also recorded: comparable in activity with MNT
- level of secondary oxidation products (p-AV) during storage ([6]; 0.5 mg/g concentration): lowest level of secondary oxidation products (p-AV)
- Peroxide values (PV, meq/kg) ([6]; 0.5 mg/g level, 1 day): 1 meq/kg
- p-Anisidine value (p-AV) ([6]; 0.5 mg/g level, 1 day): 9.5
- Peroxide values (PV, meq/kg) ([6]; 0.5 mg/g level, 5 days): 2 meq/kg
- p-Anisidine value (p-AV) ([6]; 0.5 mg/g level, 5 days): 9.5
- Peroxide values (PV, meq/kg) ([6]; 0.5 mg/g level, 8 days): 6.4 meq/kg
- p-Anisidine value (p-AV) ([6]; 0.5 mg/g level, 8 days): 11.2
- Peroxide values (PV, meq/kg) ([6]; 0.5 mg/g level, 14 days): 12.8 meq/kg
- p-Anisidine value (p-AV) ([6]; 0.5 mg/g level, 14 days): 11.4
- Peroxide values (PV, meq/kg) ([6]; 0.5 mg/g level, 19 days): 20.9 meq/kg
- p-Anisidine value (p-AV) ([6]; 0.5 mg/g level, 19 days): 12.8
- Peroxide values (PV, meq/kg) ([6]; 0.5 mg/g level, Initial): 1 meq/kg
- p-Anisidine value (p-AV) ([6]; 0.5 mg/g level, Initial): 9.4
- Peroxide values (PV, meq/kg) ([6]; 2 mg/g level, 1 day): 1 meq/kg
- p-Anisidine value (p-AV) ([6]; 2 mg/g level, 1 day): 9.4
- Peroxide values (PV, meq/kg) ([6]; 2 mg/g level, 5 days): 1.9 meq/kg
- p-Anisidine value (p-AV) ([6]; 2 mg/g level, 5 days): 9.3
- Peroxide values (PV, meq/kg) ([6]; 2 mg/g level, 8 days): 6.4 meq/kg
- p-Anisidine value (p-AV) ([6]; 2 mg/g level, 8 days): 10.8
- Peroxide values (PV, meq/kg) ([6]; 2 mg/g level, 14 days): 14.1 meq/kg
- p-Anisidine value (p-AV) ([6]; 2 mg/g level, 14 days): 11.2
- Peroxide values (PV, meq/kg) ([6]; 2 mg/g level, 19 days): 26.8 meq/kg
- p-Anisidine value (p-AV) ([6]; 2 mg/g level, 19 days): 11.8
- Peroxide values (PV, meq/kg) ([6]; 2 mg/g level, Initial): 1 meq/kg
- p-Anisidine value (p-AV) ([6]; 2 mg/g level, Initial): 9.4
- EV in poultry meal [3]: 1.17

SMILES: Cc1c(C)c2c(c(C)c1O)CC[C@@](C)(CCC[C@H](C)CCC[C@H](C)CCCC(C)C)O2 [alpha-tocopherol, reference compound]
- EV in pet food [1]: 0.77
- EV in Fish meal [2]: 0.88
- EV in poultry meal [3]: 0.74
